Measured values published in patent US11472812B2, “Anti-cancer compounds targeting Ral GTPases and methods of using the same” (The Regents of the University of Colorado, a body corporate, priority 2014, dated 2022).
“Also recorded” adds a separate entry of the source.

Experiments:
[1] = tested on: H2122 human lung cancer cells; assay: H2122 xenograft tumor growth; type: in vivo, nude mice; conditions: i.p. daily except weekends, initiated 24 h after inoculation; RBC8 50 mg/kg/d; BQU57 and BQU85 5, 10, 20, and 50 mg/kg/d
Description: We next determined compound entry into tumor tissue. To do so, athymic nude mice (Ncr nu/nu; National Cancer Institute, Fredrick, Md.) were received at 5 to 6 weeks of age and were allowed to acclimate for 2 weeks in sterile micro isolator cages with constant temperature and humidity. Mice had free access to food and water. H2122 cells in log-phase growth were harvested on the day of use. Cells were suspended in un-supplemented RPMI 1640 medium and 0.1 mL (2×10^5 cells) was injected s.c. four sites per mice. For H358 xenografts, cells (5×10^6) were mixed with matrigel (20% final concentration) and 0.1 mL was inoculated s.c. per site. After cell inoculation, mice were monitored daily, weighed twice weekly and caliper measurements begun when tumors visible. Tumor volume was calculated by (L×W2)/2, where L is longer measurement of tumor and W is the smaller tumor measurement. Drug treatment started the day after inoculation. Compounds were dissolved in DMSO and injected i.p. daily except weekends at 10/20/50 mg/kg. […] The effect of the Ral inhibitors on xenograft tumor growth was then tested in nude mice. Mice were inoculated subcutaneously with H2122 human lung cancer cells and treated intraperitoneally with 50 mg/kg/d (except weekends) of RBC8 24 h post inoculation.

[2] = tested on: H2122 human lung cancer cells; assay: Cellular uptake, LC/MS-MS of cell lysates; type: in vitro ADME; conditions: 10 μM, 1-60 min
Description: To quantitate how well the test compounds get into cells, H2122 human lung cancer cells were seeded at 3×10^5 cells per well in 6-well plates and let sit for 16 h. Compounds (10 μM) were individually dosed in triplicate; cells were then collected into 500 μl ice-cold ACN:MeOH:H2O (1:1:1) at different time points (1, 5, 15, 30 and 60 min). Drug concentrations in cell lysates were then determined using LC/MS-MS methods as described with respect to the pharmacokinetic and pharmacodynamic studies in mice, described in detail in Example 5, below.

Compound: Cn1nc(-c2ccccc2)c2c1OC(N)=C(C#N)C2c1ccc(OC(F)(F)F)cc1 (centres unmarked) [BQU85, 6-amino-1-methyl-3-phenyl-4-(4-(trifluoromethoxy)phenyl)-1,4-dihydropyrano[2,3-c]pyrazole-5-carbonitrile]
- xenograft tumor growth inhibition [1]: dose-dependent growth inhibition effects were observed; also recorded: inhibited xenograft tumor growth
- cellular uptake [2]: readily get into cells
